# Measured values from patent publication US20170165253A1, “TREATMENT OF SEXUAL DYSFUNCTION AND FOR IMPROVED SEXUAL QUALITY OF LIFE” (ReJoy, priority 2015, published 2017).
# Values joined by “and” are separate entries in the source; they are usually repeats but may differ in a detail not shown here. Equal entries are not always repeated. Structures can show the parent of a compound that is named as a salt.
# Tests used:
# nipple areola complex [1] = assay: Blinded study of 10%, 15%, 20% phenylephrine on the NAC: erection, sensitivity, lubrication, arousal (Example 12); format: in vivo, human; settings: for Arousal / Lubrication: 60 minutes, change from baseline; for Responders, Arousal / Responders, Lubrication: 20 patients; for Erection: 1 = erection reported
# Method: 20 healthy, pre-menopausal females were recruited to the study. Subjects were instructed to apply either 4 or 6 drops of an investigational drug to each nipple areola complex. Baseline blood-pressure, heart rate, nipple erection, nipple sensitivity, genital lubrication and arousal were measured and recorded. 30 minutes later, blood pressure and heart rate were measured and recorded. 60 minutes later, blood-pressure, heart rate, nipple erection, nipple sensitivity, genital lubrication and arousal were measured and recorded.
# During the study, four parameters of efficacy were measured: nipple erection, nipple sensitivity, genital lubrication, and arousal. Efficacy parameters were all patient reported outcomes measured at 0 and 60 minutes after the application of the investigational drug. Nipple erection was determined by asking the patient if they had experienced nipple erection during the 60 minutes after the application of the investigational drug. Nipple sensitivity was measured with a Likert scale of 1-10 (1 being “insensitive”, 10 being “extremely sensitive/bordering on pain”) at 0 and 60 minutes after the application of the investigational drug. Genital lubrication was measured with a Likert scale of 1-10 (1 being “none”, 10 being “excellent”) at 0 and 60 minutes after the application of the investigational drug. Arousal was measured with a Likert scale of 1-10 (1 being “none”, 10 being “extremely aroused”) at 0 and 60 minutes after the application of the investigational drug.
# After a 48-hour washout period, subjects repeated the procedure using 4 or 6 drops of a new arm of the study. The subjects and the investigator were blinded to the drug assignment in each arm. In total 6 arms were tested:
# Nipple erection data was scored “1” for a positive response to the question “Did you experience nipple erection after applying the solution?” It was scored “0” otherwise. Sensitivity data was tabulated by subtracting the patient reported nipple sensitivity at 60 minutes from the reported value at baseline. Subjects were asked to rate their level of nipple sensitivity on a scale of 1-10 (1 being “non-sensitive” and 10 being “extremely sensitive, bordering on pain.”) Subjects reporting a sensitivity increase greater than 2 after the application of each investigational drug were considered sensitivity responders.
# Genital lubrication was measured with a Likert scale of 1-10 (1 being “none” and 10 being “excellent”) at 0 and 60 minutes after the application of the investigational drug. Arousal was measured with a Likert scale of 1-10 (1 being “none” and 10 being “extremely aroused”) at 0 and 60 minutes after the application of the investigational drug. […] A subject was considered a responder for genital lubrication if they reported a change in genital lubrication of 2 or more.
# A subject was considered a responder for arousal if they reported a change in arousal of 2 or more.
# nipple-areola complex = assay: Phenylephrine FSFI orgasm domain study (Example 8); format: in vivo, human
# Method: Phenylephrine HCl 15%. A study was conducted to evaluate the effect of Phenylephrine HCl 15% on the FSFI orgasm domain. Three premenopausal subjects participated in the study. Subjects were not hypertensive, pregnant or breastfeeding.
# [2] = Blood pressure and heart rate after topical application on the nipple-areola complex (Example 2); format: in vivo, human
# Method: A study of the blood pressure and heart rate of five patients receiving topical application on the nipple-areola complex was made. The composition applied was 0.1 mL of a 10% phenylephrine solution for a total dosage of 10 mg phenylephrine HCl. Blood pressure and heart rate were measured at baseline (T=0), after 15 minutes and 30 minutes.
# nipple areola complex [3] = assay: Iontophoresis patch erection of the nipple areola complex (Example 10); format: in vivo, human; settings: 1.3 mL 1% solution, iontophoresis patch 1 hour
# Method: In the following experiment, a commercially available iontophoresis patch was used to erect the nipple of a subject.
# 1. The nipple and areola of each breast were prepared by cleaning with a sterile alcohol pad.
# 2. Two Inotopatch 80 (Travanti Medical) patches were removed from packaging.
# 3. The positive electrode of the first patch was filled with 1.3 mL of a 1% phenylephrine hydrochloride.
# 4. The negative electrode of the first patch was filled with 1.3 mL of a saline solution.
# 5. The positive electrode (approximately 1.5 cm diameter) containing the drug was placed over the nipple areola complex of the right breast; the negative electrode was placed on the adjacent breast tissue outside the nipple areola complex of the right breast.
# 6. Steps 2-5 were repeated, however, both electrodes of the Inotopatch 80 were filled with 1.3 mL of saline. The patch was applied to left breast following the procedure of step 5.
# 7. The patches were left in place (adhesive) for 1 hour (dosage=[…], 80 mA/min).
# 8. After 1 hour the patches were removed.
# [4] = IVRT Franz cell skin penetration, excised pig skin; format: in vitro ADME
# [5] = IVRT skin penetration, synthetic skin model; format: in vitro ADME; settings: 10% solution
# Excerpt: Transdermal penetration of a particular formulation can be assessed with in vitro release testing (IVRT) using a Franz cell. See Bartosova and Bajagar, “Transdermal Drug Delivery In Vitro Using Diffusion Cells,” Current Medicinal Chemistry, 2012, 19, 4671-4677.
# In order to determine the dermal absorption and bioavailability of topically applied 10% Phenylephrine Hydrochloride solution, we used an IVRT experimental setup with both skin excised from pig ears and a synthetic skin model (Maine Manufacturing, LLC, Me., USA).
# [6] = 10% (Arm C), change of 2 or more
# [7] = 15% (Arm D), single patients, Hydrochloride
# [8] = 20% (Arm B), single patients, Hydrochloride
# [9] = Phenylephrine HCl 15%, single subjects, Hydrochloride
# [10] = 0.1 mL 10% solution on NAC, 15 minutes, single subjects, listed as PHCI, Hydrochloride
# [11] = 0.1 mL 10% solution on NAC, 30 minutes, single subjects, listed as PHCI, Hydrochloride
smiles,measurement,setting,value
"CNC[C@H](O)c1cccc(O)c1 [Phenylephrine HCl, Phenylephrine Hydrochloride]","Percent responders, Arousal",nipple areola complex [1]; 10% (Arm C),0%
same,"Percent responders, Lubrication",nipple areola complex [1]; 10% (Arm C),5%
same,Arousal,"nipple areola complex [1]; 10% (Arm C), Likert 1-10, single patients",0
same,Lubrication,"nipple areola complex [1]; 10% (Arm C), Likert 1-10, single patients, Hydrochloride",0 (17×) and 1 (2×) and 2
same,"Responders, Arousal",nipple areola complex [1]; [6],0
same,"Responders, Lubrication",nipple areola complex [1]; [6],1
same,"% Responders, Erection","nipple areola complex [1]; 10%, four drops",37%
same,"% Responders, Sensitivity","nipple areola complex [1]; 10%, four drops",16%
same,Erection,"nipple areola complex [1]; 10%, four drops (0.114 mL) per NAC, 0 otherwise, single patients, listed as PE, Hydrochloride",0 (11×) and 1 (8×)
same,"Responders, Erection","nipple areola complex [1]; 10%, four drops, 19 patients",7
same,"Responders, Sensitivity","nipple areola complex [1]; 10%, four drops, 19 patients",3
same,Sensitivity,"nipple areola complex [1]; 10%, four drops, change baseline to 60 minutes, scale 1-10, single patients, listed as PE, Hydrochloride",1 (7×) and 0 (9×) and 5 and 2 (2×)
same,"% Responders, Erection","nipple areola complex [1]; 10%, six drops",50%
same,"% Responders, Sensitivity","nipple areola complex [1]; 10%, six drops",44%
same,Erection,"nipple areola complex [1]; 10%, six drops (0.170 mL) per NAC, single patients, listed as PE, Hydrochloride",1 (8×) and 0 (8×)
same,"Responders, Erection","nipple areola complex [1]; 10%, six drops, 16 patients",8
same,"Responders, Sensitivity","nipple areola complex [1]; 10%, six drops, 16 patients",7
same,Sensitivity,"nipple areola complex [1]; 10%, six drops, change baseline to 60 minutes, scale 1-10, single patients, listed as PE, Hydrochloride",4 (2×) and 0 (6×) and 1 (3×) and 3 (2×) and 2 (3×)
same,"Percent responders, Arousal",nipple areola complex [1]; 15% (Arm D),0%
same,"Percent responders, Lubrication",nipple areola complex [1]; 15% (Arm D),10%
same,"Responders, Arousal",nipple areola complex [1]; 15% (Arm D),0
same,"Responders, Lubrication",nipple areola complex [1]; 15% (Arm D),2
same,Arousal,nipple areola complex [1]; [7],0 (19×) and −1
same,Lubrication,nipple areola complex [1]; [7],0 (15×) and 2 and 1 (3×) and 3
same,"% Responders, Erection","nipple areola complex [1]; 15%, four drops",42%
same,"% Responders, Sensibility","nipple areola complex [1]; 15%, four drops",53%
same,"Responders, Erection","nipple areola complex [1]; 15%, four drops, 19 patients",8
same,"Responders, Sensibility","nipple areola complex [1]; 15%, four drops, 19 patients",10
same,Erection,"nipple areola complex [1]; 15%, four drops, single patients, listed as PE, Hydrochloride",0 (11×) and 1 (8×)
same,Sensibility,"nipple areola complex [1]; 15%, four drops, change baseline to 60 minutes, scale 1-10, single patients, listed as PE, Hydrochloride",0 (7×) and 2 (5×) and 5 and 1 (2×) and 3 (3×) and 9
same,"Percent responders, Arousal",nipple areola complex [1]; 20% (Arm B),0%
same,"Percent responders, Lubrication",nipple areola complex [1]; 20% (Arm B),20%
same,"Responders, Arousal",nipple areola complex [1]; 20% (Arm B),0
same,"Responders, Lubrication",nipple areola complex [1]; 20% (Arm B),4
same,Arousal,nipple areola complex [1]; [8],0 (19×) and 1
same,Lubrication,nipple areola complex [1]; [8],0 (15×) and 2 (3×) and 1 and 3
same,"% Responders, Erection","nipple areola complex [1]; 20%, four drops",68%
same,"% Responders, Sensitivity","nipple areola complex [1]; 20%, four drops",42%
same,"Responders, Erection","nipple areola complex [1]; 20%, four drops, 19 patients",13
same,"Responders, Sensitivity","nipple areola complex [1]; 20%, four drops, 19 patients",8
same,Erection,"nipple areola complex [1]; 20%, four drops, single patients, listed as PE, Hydrochloride",1 (13×) and 0 (6×)
same,Sensitivity,"nipple areola complex [1]; 20%, four drops, change baseline to 60 minutes, scale 1-10, single patients, listed as PE, Hydrochloride",0 (7×) and 1 (4×) and 2 (5×) and 4 (2×) and 9
same,adverse events,nipple-areola complex; 15%,No adverse events were reported
same,subjects with increased sensitivity and nipple erection,"nipple-areola complex; 15%, subjects without response to 10%",3 of 5
same,"FSFI Scale How Difficult to Reach Orgasm, Intervention",nipple-areola complex; [9],5 (2×) and 4
same,"FSFI Scale How Often Orgasm was Reached, Intervention",nipple-areola complex; [9],5 and 4 (2×)
same,nipple sensitivity past application,nipple-areola complex; report,≤ 12 h
same,BP (T = 15),[2]; [10],112/76 and 122/77 and 117/72 and 120/72 and 99/67
same,HR (T = 15),[2]; [10],69 and 77 and 75 and 53 and 68
same,BP (T = 30),[2]; [11],117/75 and 122/78 and 128/77 and 116/68 and 97/63
same,HR (T = 30),[2]; [11],74 and 80 and 68 and 58 and 69
same,change in blood pressure or heart rate,"[2]; 0.1 mL 10% solution, five patients, 15 and 30 minutes",No significant change in blood pressure or heart rate
same,nipple sensitivity,nipple areola complex [3]; one subject,increased sensitivity in the right nipple compared to the left nipple
same,nipple erection,nipple areola complex [3]; right nipple vs saline left,visibly erect
same,total absorption over 24 hours,"[4]; 0.1 mL of 10% solution per NAC, both NAC",16.6 mg
same,less systemic exposure compared to the oral OTC drug,[4]; topical dosage vs one 10 mg oral tablet every 4 hours,approximately 45%
same,maximal skin absorption in 24 hours,[5],≤ 83%
